The results in this text go back to patent US20060165732A1, “Fungal antigens and eosinophil activity” (priority 2002, published 2006).

Where two headings read alike, the source gives them in different places.

Assay [1] relates to Alternaria-induced eosinophil degranulation. In words: Effect of test agents on Alternaria-induced eosinophil degranulation (EDN release). The class given is cell-based, human. As for the experimental part: (§1) To monitor eosinophil degranulation, 200 μL of freshly isolated eosinophils were resuspended in HBSS with 25 mM HEPES and 0.01% gelatin at 5×10^5 cells/mL and incubated with the a particular fungal extract. After incubation for 3 hours at 37° C. in a 5% CO2 atmosphere, cell-free supernatants from each well were collected and stored at −20° C. To quantitate eosinophil degranulation, the concentration of one of the eosinophil granule proteins in the sample supernatants, EDN, was measured by specific RIA, as described previously (Horie & Kita, 1994, J. Immunol., 152:5457). The RIA is a double-Ab competition assay in which radioiodinated EDN, rabbit anti-EDN Ab, and burro anti-rabbit IgG are used (Abu-Ghazaleh et al., 1989, J. Immunol., 142:2393). Sensitivity of the kit was 2 ng/mL. Total cellular EDN was measured in parallel supernatants from cells lysed with Nonidet P-40 detergent (Sigma Chemical Co.). All experiments were conducted in duplicate.
The mechanism of the eosinophil degranulation response to Alternaria antigens was examined. To test whether Alternaria proteases are involved in eosinophil activation, Alternaria extracts either were pretreated with a cocktail of protease inhibitors (Complete™, Roche Molecular Biochemicals, Indianapolis, Ind.) or were not pretreated (control). Eosinophils then were incubated with the pretreated or control Alternaria extracts for 4 hours, and EDN release was measured.
(§2) To examine the effect of cytochalasin B in the eosinophil response, eosinophils were preincubated with or without cytochalasin B (5 μg/mL) for 15 minutes at 37° C. After preincubation, eosinophils were exposed to either Alternaria culture extract (100 μg/mL) or IL-5 (10 ng/mL) for 3 hours at 37° C., and EDN release from eosinophils was measured.
(§3) Next, the effect of a Ca^2+ chelator, EGTA, on Alternaria- or IL-5-induced eosinophil degranulation was investigated.
(§4) Eosinophils were pre-treated with various concentrations of ionomycin (FIG. 8D) or thapsigargin (FIG. 8E) for 15 minutes, and then exposed to Alternaria culture extract (100 μg/mL) or IL-5 (10 ng/mL) for 3 hours at 37° C.

Assay [2] concerns IL-5-induced eosinophil degranulation. The class given is cell-based, human. As for the experimental part: as §1, §2, §3, §4
For another assay, the system named is PBMC. The assay is described as follows: Effect of fluticasone propionate on IL-5 production by PBMC (ELISA). It is filed as cell-based, human. As for the experimental part: PBMC were isolated from 30 mL of blood drawn from patients with chronic sinusitis, bronchial asthma, or normal individuals by density centrifugation using Histopaque®. Cells were then suspended in RPMI 1640 medium supplemented with 10% fetal bovine serum at 2×10^6 cells/mL and incubated for 3 days at 37° C. in 96-well tissue culture plates with medium alone, 25 μg/mL Alternaria cellular extract, 25 μg/mL Dermatophagoides Pteronyssinus (Der P; Greer Laboratories; a mite allergen), or 5 μg/mL Concanavalin A. Since Concanavalin A is a very potent inducer, supernatants of PBMC were diluted 50-fold before they were analyzed for the presence of IL-5.
To examine the effects of glucocorticoids on the eosinophilic response, fluticasone propionate (10^−10 M to 10^−6 M, GlaxoSmithKline) was added to the culture. After incubation, cell-free supernatants were collected and analyzed for IL-5 concentrations using an ELISA assay (Endogen, Inc.). In the experiments with Concanavalin A, the amount of IL-5 determined by ELISA was multiplied by 50 to account for the dilution factor.
(In general: ELISA stands for enzyme-linked immunosorbent assay.)

The test system of the next assay is mice. In words: Airway eosinophilia in mice (BAL fluid cells, DiffQuick stain). It is filed as in vivo. As for the experimental part:
Mice were sensitized at day 14 with 20 μg/dose OVA or 100 μg/dose Alternaria extracts (cellular or culture) by intraperitoneal injection of the antigens followed by intranasal challenge with the appropriate antigen at 250 μg/dose on days 28, 30, and 32.
Eosinophils were detected in mice by collecting BAL fluids, isolating the cells using a cytospin preparation, and staining the cells with DiffQuick stain (DADE Behring, Inc., Newark, Del.).
Furthermore, at 250 μg/dose of Alternaria culture extract, about 10% of the mice died before day 8 due to massive respiratory failure.
To examine the role of IL-5 in airway eosinophilia induced by Alternaria culture extracts, mice were pre-treated with 25 μg/dose of an anti-IL-5 mAb (Pharmingen) or a control antibody (rat IgG) 24 hours before being intranasally challenged at days 0, 3, and 6 with 250 μg/dose OVA, or 250 μg/dose Alternaria culture extract. The number of eosinophils was analyzed by DiffQuick staining at day 8.

Setting [3] is: fluticasone 10^−10 M, asthma patient PBMC, 3 days.
Where [4] appears, read: fluticasone 10^−10 M, medium alone, asthma patient PBMC, 3 days.
[5] abbreviates: fluticasone 10^−10 M, multiplied by 50 for dilution.
The mark [6] stands for this setting: fluticasone 10^−10 M, supernatant diluted 50-fold.
Where [7] appears, read: pre-treatment 15 minutes, various concentrations, Alternaria culture extract 100 μg/mL, 3 hours.
Setting [8] is: pre-treatment 15 minutes, various concentrations, IL-5 10 ng/mL, 3 hours.

`NCCc1ccc(S(=O)(=O)F)cc1` [AEBSF]: the “inhibition of Alternaria-induced eosinophil degranulation” value in assay [1] (Alternaria extracts pretreated with inhibitor, 4 hours, EDN release) was determined as 89%.
A word on the IC50: it is the concentration that inhibits the measured activity by half. On to `CCCCCCCCCCCCCCCCCCNC(=O)OCC(COC(=O)N(Cc1cccc[n+]1CC)C(C)=O)OC` (stereo not drawn) [CV6209], for which the IC50 in assay [1] (Homo sapiens, Eosinophil, read-out: IC50 for Alternaria-induced degranulation) was around 1000 nM.
As to `O=C(O)CN(CCN(CC(=O)O)CC(=O)O)CC(=O)O` [EDTA], the “effect on Alternaria-induced eosinophil degranulation” value in assay [1] (various concentrations) was “completely inhibited”. Moreover, the “effect on IL-5-induced eosinophil degranulation” value in assay [2] was “completely inhibited”.
In the case of `O=C(O)CN(CCOCCOCCN(CC(=O)O)CC(=O)O)CC(=O)O` [EGTA], the “effect on Alternaria-induced eosinophil degranulation” value in assay [1] (1 mM, pretreatment 15 minutes) was “almost completely inhibited”; in assay [1] (10 mM, pretreatment 15 minutes) it was “almost completely inhibited”. Besides, the “effect on IL-5-induced degranulation” value in assay [2] (1 mM, pretreatment 15 minutes) is “only partially inhibited”; in assay [2] (10 mM, pretreatment 15 minutes), “almost completely inhibited”.
`C=CC[C@@H]1/C=C(\C)C[C@H](C)C[C@H](OC)[C@H]2O[C@@](O)(C(=O)C(=O)N3CCCC[C@H]3C(=O)O[C@H](/C(C)=C/[C@@H]3CC[C@@H](O)[C@H](OC)C3)[C@H](C)[C@@H](O)CC1=O)[C@H](C)C[C@@H]2OC` [FK-506]: the “effect on IL-5-induced eosinophil degranulation” value in assay [2] (various concentrations) is “no effect”.
Same read-out and setting: under `CN(C)CCCn1cc(C2=C(c3c[nH]c4ccccc34)C(=O)NC2=O)c2ccccc21` [GF109203X] stands “partially inhibited”.
Still for that read-out and setting: under `O=c1c(-c2ccc(O)cc2)coc2cc(O)cc(O)c12` [Genistein] stands “completely inhibited”; under `Cn1c2ccccc2c2c3c(c4c5ccccc5n(CCC#N)c4c21)CNC3=O` [Go 6976], “completely inhibited”; under `COc1cccc(-c2cc(=O)c3ccccc3o2)c1N` [PD98059], “partially inhibited”.
Still for that read-out and setting: under `CC(=O)c1c(O)c(C)c(O)c(Cc2c(O)c3c(c(C(=O)/C=C/c4ccccc4)c2O)OC(C)(C)C=C3)c1O` [Rottelerin] stands “completely inhibited”; under `C[S+]([O-])c1ccc(-c2nc(-c3ccncc3)c(-c3ccc(F)cc3)[nH]2)cc1` (stereo not drawn) [SB203580], “completely inhibited”; under `CCCC[C@@H](C=O)NC(=O)[C@H](CC(C)C)NC(=O)OCc1ccccc1` [calpeptin, Calpeptin], “partially inhibited”.
As for `C=C1[C@@H](C)[C@H]2[C@H](Cc3ccccc3)NC(=O)[C@]23OC(=O)/C=C/[C@H](O)CCC[C@@H](C)C/C=C/[C@H]3[C@@H]1O` [cytochalasin B], the “effect on Alternaria-induced eosinophil degranulation” value in assay [1] (5 μg/mL preincubation 15 minutes, Alternaria culture extract 100 μg/mL, 3 hours) is on record as “not affected”. Also, the “effect on IL-5-induced degranulation” value in assay [2] (5 μg/mL preincubation 15 minutes, IL-5 10 ng/mL, 3 hours) is reported as “inhibited”.
Turning to `CCC(=O)O[C@]1(C(=O)SCF)[C@H](C)C[C@H]2[C@@H]3C[C@H](F)C4=CC(=O)C=C[C@]4(C)[C@@]3(F)[C@@H](O)C[C@@]21C` [fluticasone propionate], in the assay with PBMC, the “IL-5 production in the presence of Concanavalin A” value is reported as “inhibited”. In the assay with PBMC (10^−10 M, lowest concentration), the “IL-5 production in Alternaria-induced PBMC” value is given as “significantly inhibited”. In the assay with PBMC (10—O M as printed), the “IL-5 production in the presence of Der P” value is listed as “inhibited”. In the assay with PBMC (fluticasone 10^−9 M, asthma patient PBMC, 3 days), the “IL-5, Cellular Alternaria Extract (25 μg/mL), 1” value amounted to 0.4. In the assay with PBMC (setting [3]), the “IL-5, Cellular Alternaria Extract (25 μg/mL), 1” value came to 1.4; the “IL-5, Cellular Alternaria Extract (25 μg/mL), 2” value is 3.9; the “IL-5, Cellular Alternaria Extract (25 μg/mL), mean” value is recorded as 2.6; the “IL-5, Der P (25 μg/mL), 2” value was 0.9. The “IL-5, Der P (25 μg/mL), mean” value in the assay on PBMC (setting [3]) stood at 0.9. Besides, in the assay with PBMC (fluticasone 10^−10 M, mean of values multiplied by 50), the “IL-5, Con A (5 μg/mL), mean” value came to 101. Further, in the assay with PBMC (setting [4]), the “IL-5, Medium, 1” value turned out to be 1.3; the “IL-5, Medium, 2” value is given as 0.3; the “IL-5, Medium, mean” value was 0.8. Further, in the assay with PBMC (setting [5]), the “IL-5, Con A (5 μg/mL), 1*50” value was found to be 87 and the “IL-5, Con A (5 μg/mL), 2*50” value came to 115. Moreover, in the assay with PBMC (setting [6]), the “IL-5, Con A (5 μg/mL), 1” value is 1.7 and the “IL-5, Con A (5 μg/mL), 2” value is on record as 2.3.
For `C[C@H](CCC(=O)O)C[C@H](C)C[C@H](C)C(=O)/C=C(\O)[C@H](C)C[C@H](C)C/C=C/[C@@H](C)[C@@H](O)[C@@H](C)[C@@H](O)C[C@@H]1CC[C@@](C)([C@H]2CC[C@@](C)([C@@H](C)O)O2)O1` [ionomycin], the “effect on Alternaria-induced eosinophil degranulation” value in assay [1] (setting [7]) is recorded as “synergistically increased”. The “effect on IL-5-induced eosinophil degranulation” value in assay [2] (setting [8]) is reported as “significantly inhibited”.
Taken in the same sequence, the figures for `C/C=C(/C)C(=O)O[C@H]1C(C)=C2[C@H]([C@@H]1OC(=O)CCCCCCC)[C@@](C)(OC(C)=O)C[C@H](OC(=O)CCC)[C@@]1(O)[C@H]2OC(=O)[C@@]1(C)O` [thapsigargin] were “synergistically increased” and “significantly inhibited”.
Herbmycin: the “effect on IL-5-induced eosinophil degranulation” value in assay [2] (various concentrations) is on record as “completely inhibited”.

B1: OVA: OVA antigen used for sensitization and challenge of mice (protein, UniProt P01012 2-386, looked up)
Ovalbumin: GSIGAASMEFCFDVFKELKVHHANENIFYCPIAIMSALAMVYLGAKDSTRTQINKVVRFDKLPGFGDSIEAQCGTSVNVHSSLRDILNQITKPNDVYSFSLASRLYAEERYPILPEYLQCVKELYRGGLEPINFQTAADQARELINSWVESQTNGIIRNVLQPSSVDSQTAMVLVNAIVFKGLWEKAFKDEDTQAMPFRVTEQESKPVQMMYQIGLFRVASMASEKMKILELPFASGTMSMLVLLPDEVSGLEQLESIINFEKLTEWTSSNVMEERKIKVYLPRMKMEEKYNLTSVLMAMGITDVFSSSANLSGISSAESLKISQAVHAAHAEINEAGREVVGSAEAGVDAASVSEEFRADHPFLFCIKHIATNAVLFFGRCVSP
With B1, the “airway eosinophilia in non-sensitized (naïve) mice” value with mice (intranasal challenge only) is “not”. Also, the “airway eosinophilia in sensitized and challenged mice” value in the assay with mice (intraperitoneal sensitization day 14, intranasal challenge 250 μg/dose days 28, 30, 32) was “developed airway eosinophilia by day 34”.
